Results on 6 compounds are retold here after ChEMBL document CHEMBL1201862, “PubChem BioAssay data set” (2004).

The subject of assay [1] is Streptococcus sp. 'group A'. The assay can be described thus: Streptococcus pyogenes SK(-)GAS viability under kanamycin – luminescence, BacTiterGlo, confirmation, counter-screen for streptokinase expression inhibitor project, dose response (AID 1900). In kind it is functional, organism-based.
The next assay addresses T1, Streptokinase A (Streptococcus pyogenes serotype M1, UniProt P10520).
T1 sequence (P10520 whole entry): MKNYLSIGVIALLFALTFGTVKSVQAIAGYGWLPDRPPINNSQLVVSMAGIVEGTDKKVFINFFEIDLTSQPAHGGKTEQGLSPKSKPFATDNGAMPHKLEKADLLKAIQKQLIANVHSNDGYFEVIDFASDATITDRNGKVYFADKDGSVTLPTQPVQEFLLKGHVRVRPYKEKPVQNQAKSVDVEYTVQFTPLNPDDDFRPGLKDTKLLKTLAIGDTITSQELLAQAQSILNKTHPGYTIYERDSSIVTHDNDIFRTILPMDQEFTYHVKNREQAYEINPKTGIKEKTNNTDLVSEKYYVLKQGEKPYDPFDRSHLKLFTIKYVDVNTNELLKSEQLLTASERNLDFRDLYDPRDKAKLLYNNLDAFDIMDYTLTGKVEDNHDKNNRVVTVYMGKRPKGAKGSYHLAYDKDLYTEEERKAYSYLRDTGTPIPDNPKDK
The assay is described as follows: viability-normalized secreted streptokinase activity reduction – plasminogen activation absorbance, OD405, dose response (AID 1914).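 Note: secreted streptokinase activity via plasminogen activation per viability signal from cell pellet.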 In kind it is functional, Streptococcus pyogenes M1 GAS.

The next assay deals with Streptococcus. The assay can be described thus: GAS UMAA2166 growth inhibition – luminescence, BacTiterGlo, counter-screen for streptokinase expression inhibitor project, dose response (AID 1915).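 Note: potency for reduction of bacterial viability or growth.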 In kind it is functional, organism-based. (A counterscreen serves to expose hits that act by an unwanted route or on another target.)
In assay [2] the target is T2, Replicative DNA helicase DnaB (Mycobacterium tuberculosis, UniProt P9WMR3).
T2 sequence (P9WMR3 whole entry): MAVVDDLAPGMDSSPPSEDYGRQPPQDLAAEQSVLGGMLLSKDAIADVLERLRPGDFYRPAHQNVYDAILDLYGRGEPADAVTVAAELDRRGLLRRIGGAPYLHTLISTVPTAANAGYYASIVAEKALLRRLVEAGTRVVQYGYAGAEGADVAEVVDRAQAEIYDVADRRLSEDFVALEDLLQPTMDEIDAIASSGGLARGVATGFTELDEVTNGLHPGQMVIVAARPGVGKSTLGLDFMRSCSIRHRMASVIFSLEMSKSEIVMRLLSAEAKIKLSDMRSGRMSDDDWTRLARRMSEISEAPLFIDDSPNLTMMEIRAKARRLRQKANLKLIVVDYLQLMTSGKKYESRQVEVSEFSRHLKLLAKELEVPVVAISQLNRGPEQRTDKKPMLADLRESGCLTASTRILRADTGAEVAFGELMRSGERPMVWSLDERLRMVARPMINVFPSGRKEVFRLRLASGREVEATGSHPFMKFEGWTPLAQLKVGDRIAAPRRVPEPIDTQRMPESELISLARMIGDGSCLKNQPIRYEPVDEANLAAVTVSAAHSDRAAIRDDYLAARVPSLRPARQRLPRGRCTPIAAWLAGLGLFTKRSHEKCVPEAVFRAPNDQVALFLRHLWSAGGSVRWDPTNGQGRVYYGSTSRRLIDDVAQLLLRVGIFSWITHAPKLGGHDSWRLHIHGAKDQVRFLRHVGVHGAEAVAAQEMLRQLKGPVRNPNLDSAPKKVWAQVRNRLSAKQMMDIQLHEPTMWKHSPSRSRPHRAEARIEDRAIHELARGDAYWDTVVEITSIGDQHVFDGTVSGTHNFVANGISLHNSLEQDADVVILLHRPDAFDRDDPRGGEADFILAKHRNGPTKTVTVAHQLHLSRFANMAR
The assay is described as follows: DnaB intein splicing inhibitors, dose response, biochemical, cell-free fluorescence (AID 449749). It is filed as functional.

Another assay addresses T3, Protein RecA (Mycobacterium tuberculosis, UniProt P9WHJ3).
T3 sequence (P9WHJ3 whole entry): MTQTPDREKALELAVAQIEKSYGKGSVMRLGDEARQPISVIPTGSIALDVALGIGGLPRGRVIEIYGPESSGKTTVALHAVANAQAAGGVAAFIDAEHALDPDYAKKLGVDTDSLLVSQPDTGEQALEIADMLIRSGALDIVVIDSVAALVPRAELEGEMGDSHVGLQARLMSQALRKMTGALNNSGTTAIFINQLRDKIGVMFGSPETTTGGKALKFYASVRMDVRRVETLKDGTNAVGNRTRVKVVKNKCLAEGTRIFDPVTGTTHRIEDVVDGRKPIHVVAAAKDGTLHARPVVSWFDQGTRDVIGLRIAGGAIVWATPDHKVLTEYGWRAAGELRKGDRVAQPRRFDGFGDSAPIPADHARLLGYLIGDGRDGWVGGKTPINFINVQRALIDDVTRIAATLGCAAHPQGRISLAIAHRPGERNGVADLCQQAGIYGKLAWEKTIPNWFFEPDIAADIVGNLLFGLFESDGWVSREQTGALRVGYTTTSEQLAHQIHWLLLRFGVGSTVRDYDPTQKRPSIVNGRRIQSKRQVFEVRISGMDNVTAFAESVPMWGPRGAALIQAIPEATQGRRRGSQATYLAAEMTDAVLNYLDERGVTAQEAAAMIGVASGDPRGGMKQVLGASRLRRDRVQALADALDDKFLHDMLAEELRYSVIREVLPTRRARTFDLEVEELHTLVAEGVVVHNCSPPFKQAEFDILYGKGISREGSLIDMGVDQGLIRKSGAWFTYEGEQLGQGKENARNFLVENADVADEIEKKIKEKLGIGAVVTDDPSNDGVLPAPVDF
The assay can be described thus: Fluorescence Cell-Free Homogeneous Dose Retest to Identify Inhibitors of RecA-Intein Splicing Activity. [Related pubchem assays (depositor defined):AID2097, AID2223, AID489010, AID492950]. In kind it is functional.

Assay [3] has as its target T4, Sentrin-specific protease 8 (Homo sapiens, UniProt Q96LD8).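 Note: luminescence read-out of SENP8 inhibition, dose-response confirmation following an ultra-high-throughput screen.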
T4 sequence (Q96LD8 whole entry): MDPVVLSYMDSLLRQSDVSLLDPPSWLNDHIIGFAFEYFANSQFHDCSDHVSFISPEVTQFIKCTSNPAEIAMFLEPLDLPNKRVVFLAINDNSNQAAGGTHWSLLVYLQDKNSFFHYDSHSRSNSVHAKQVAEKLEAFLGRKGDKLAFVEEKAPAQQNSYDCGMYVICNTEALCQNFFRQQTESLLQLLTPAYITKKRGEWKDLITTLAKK
It is filed as functional.

In assay [4] the target is T5, Tyrosyl-DNA phosphodiesterase 2 (Homo sapiens, UniProt O95551).
T5 sequence (O95551 whole entry): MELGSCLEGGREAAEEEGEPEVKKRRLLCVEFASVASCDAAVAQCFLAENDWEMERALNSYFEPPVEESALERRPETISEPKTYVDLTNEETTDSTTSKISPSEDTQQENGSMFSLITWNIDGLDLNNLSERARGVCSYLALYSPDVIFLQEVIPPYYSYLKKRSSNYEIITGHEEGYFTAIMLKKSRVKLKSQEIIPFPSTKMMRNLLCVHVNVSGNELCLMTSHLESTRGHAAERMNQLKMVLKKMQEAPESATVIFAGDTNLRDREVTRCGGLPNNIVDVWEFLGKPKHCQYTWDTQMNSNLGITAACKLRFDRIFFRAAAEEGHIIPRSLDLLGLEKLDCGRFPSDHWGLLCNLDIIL
The assay can be described thus: potency against TDP2 phosphodiesterase activity – biochemical, epi absorbance, IC50, dose response (AID 743297).

Activity calls are given as the source filed them. Cut-off read from the data, not from the text of the source, for most assays here: actives have a measured EC50 and inactives only a lower limit.

What is called EC50 is the midpoint of the concentration-response curve. In general, AC50 refers to the midpoint of the concentration-response curve, whichever way the signal moves. On to `CCc1nnc(NS(=O)(=O)c2ccc(NC(=S)NC(=O)/C=C/c3ccc(C(C)C)cc3)cc2)s1`, for which the EC50 in assay [1] is 2.39 µM (active); on Streptokinase A it was 4.44 µM (active); with Streptococcus, 7.83 µM (active); at Protein RecA, 33.4 µM (active). For the same compound, the AC50 in assay [2] was 3150 nM (active).

What is called IC50 is the point on the concentration scale where inhibition reaches its midpoint. Regarding `O=C(/C=C/c1ccco1)Nc1ccc(Oc2ccccc2)cc1`, the IC50 in assay [3] is 17.4 µM (active).

In the case of `CC1CC(=O)c2c(cc3c(-c4c(O)cc(O)c5c(O)c6c(cc45)OC(C)CC6=O)c(O)cc(O)c3c2O)O1` (centres undefined) [CEPHALOCHROMIN], the EC50 in assay [1] is 0.348 µM (active); on Streptokinase A, > 150 µM (not active); with Streptococcus it was 0.991 µM (active); at Protein RecA it was 1.57 µM (active). In addition, the AC50 in assay [2] is 1780 nM (active).

As for `COC(=O)C(O)(c1c(C)[nH]n(-c2ccccc2)c1=O)C(F)(F)F` (centres undefined), the AC50 in assay [2] was < 18 nM (active). Also, on Protein RecA, the EC50 is 3.74 µM (active). Moreover, the IC50 in assay [4] was 12.7 µM (inactive).

Take `COc1ccc(S(=O)(=O)Nc2cc(SCC(=O)O)c(O)c3ccccc23)cc1`: the 50% inhibitory concentration (IC50) in assay [3] was 9.39 µM (active); in assay [4] it was 75.9 µM (inactive). For the same compound, the AC50 in assay [2] was 885 nM (active). For the same compound, the EC50 on Protein RecA is 0.234 µM (active).

For the compound `O=C1C(Nc2ccc(O)cc2)=C/C(=N/S(=O)(=O)c2cccs2)c2ccccc21`, the EC50 is 1.68 µM (active) in assay [1], > 150 µM (not active) on Streptokinase A, 7.1 µM (active) in the assay on Streptococcus and 0.123 µM (active) at Protein RecA. In addition, in assay [2], the AC50 is 128 nM (active). In assay [4], the IC50 was 0.698 µM (active).
